Earlier results as cited in patent publication US20050039221A1, “Phenotypic effects of ubiquinone deficiencies and methods of screening thereof” (priority 2001, published 2005).

How the values were obtained:
complex II = conditions: synthetic DMQ2
complex I = conditions: synthetic DMQ2
[1] = rodents

SMILES	Function as co-factor for electron transport from complex II (complex II)	Function as co-factor for electron transport from complex I (complex I)	Uptake of dietary UQ, share of the initially ingested ubiquinone [1]
COC1=CC(=O)C(C)=C(C/C=C(\C)CCC=C(C)C)C1=O [DMQ2]	more poorly	can function as a co-factor	–
COC1=C(OC)C(=O)C(C/C=C(\C)CC/C=C(\C)CC/C=C(\C)CC/C=C(\C)CC/C=C(\C)CC/C=C(\C)CC/C=C(\C)CC/C=C(\C)CC/C=C(\C)CCC=C(C)C)=C(C)C1=O [UQ, Ubiquinone]	–	–	2-3%
